This is an account of results in ChEMBL document CHEMBL1201862, “PubChem BioAssay data set” (2004).

Test systems include HCT-116; TK-10; A549; HOP-92; HL-60; Malme-3M; K562; LOX IMVI; OVCAR-8; NCI-H522; SK-MEL-28; IGROV-1; NCI-H460; ACHN; UO-31; UACC-257; CCRF-CEM; OVCAR-3; SF-268; HCC 2998.
Holding throughout (assay): NCI tumour cell line growth inhibition, 48 h

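Interpolation was linear, between the two tested concentrations surrounding the appropriate level; five concentrations were tested over 48 hours in 96-well plates. GI50 is the concentration that inhibits growth by half.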 Calls of active or inactive are those of the source. Rule as the data show it: active = GI50 up to about 1.1 µM and inactive = higher.

For the compound `N#CCCOCN(CO)c1nc(N(CO)COCCC#N)nc(N(CO)COCCC#N)n1`, the GI50 in the assay with HCT-116 is 25.7 µM (inactive); in the assay on TK-10, 34 µM (inactive); in the assay with A549, 26.1 µM (inactive); with HOP-92, 23.4 µM (inactive); with HL-60, 17.7 µM (inactive); in the assay on Malme-3M, 24.9 µM (inactive). Besides, the GI50 with K562 is 25 µM (inactive); in the assay on LOX IMVI, 31.8 µM (inactive); in the assay with OVCAR-8 it was 15.8 µM (inactive); with NCI-H522, 22.3 µM (inactive); in the assay with SK-MEL-28 it was 20.7 µM (inactive); with IGROV-1 it was > 100 µM (inactive). The GI50 with NCI-H460 is 29.7 µM (inactive); in the assay with ACHN, 28.6 µM (inactive); in the assay with UO-31, 21.7 µM (inactive); in the assay on UACC-257, 28 µM (inactive); in the assay with CCRF-CEM it was 23.6 µM (inactive); with OVCAR-3 it was 25.7 µM (inactive). For the same compound, the GI50 in the assay with SF-268 is 23.1 µM (inactive).

Regarding `CN(C)c1nc(N(C)C)nc(N(C)CN(C)c2ccccc2)n1`, the GI50 in the assay with HCT-116, with TK-10, in the assay on A549, in the assay on HL-60, in the assay with Malme-3M and in the assay on K562 was > 100 µM (inactive) each time. Also, the GI50 with LOX IMVI, in the assay on OVCAR-8, in the assay on NCI-H522, in the assay with SK-MEL-28, in the assay with IGROV-1 and in the assay on NCI-H460 was > 100 µM (inactive) in each case. Besides, the GI50 in the assay with HCC 2998 was 64.4 µM (inactive); in the assay on ACHN, > 100 µM (inactive); in the assay on UO-31 it was > 100 µM (inactive); in the assay with UACC-257 it was > 100 µM (inactive); in the assay with CCRF-CEM it was > 100 µM (inactive); with OVCAR-3, > 100 µM (inactive). In addition, the GI50 in the assay with SF-268 was > 100 µM (inactive).

As for `COc1ccc(-c2nnc(-c3ccncc3)o2)cc1`, the GI50 with HCT-116, in the assay with TK-10, with A549, with HOP-92, in the assay with HL-60 and in the assay with Malme-3M was > 100 µM (inactive) in each case. For the same compound, the GI50 in the assay on K562, with LOX IMVI, in the assay with OVCAR-8, with NCI-H522, in the assay on SK-MEL-28 and in the assay on IGROV-1 was > 100 µM (inactive) throughout. In addition, the GI50 in the assay with ACHN, in the assay with UO-31, in the assay with UACC-257, in the assay with CCRF-CEM, in the assay with OVCAR-3 and with SF-268 was > 100 µM (inactive) each time.

As for `O=C(NO)c1coc2ccccc2c1=O`, the GI50 with TK-10 is 35.7 µM (inactive); with A549, > 100 µM (inactive); in the assay on HL-60, 75.2 µM (inactive); in the assay on Malme-3M it was 88.9 µM (inactive); in the assay on K562, > 100 µM (inactive); in the assay on LOX IMVI, > 100 µM (inactive). Further, the GI50 in the assay with OVCAR-8 was > 100 µM (inactive); with NCI-H522, > 100 µM (inactive); in the assay with SK-MEL-28, > 100 µM (inactive); in the assay on IGROV-1, > 100 µM (inactive); with HCC 2998 it was 32.7 µM (inactive); in the assay with ACHN, 23.7 µM (inactive). For the same compound, the GI50 in the assay on UO-31 is 86.9 µM (inactive); with UACC-257 it was > 100 µM (inactive); in the assay with CCRF-CEM, > 100 µM (inactive); in the assay on SF-268, 91.2 µM (inactive).

As to `COc1cc(Cc2ccc3c(c2C#N)N(C)c2ccccc2S3)cc(OC)c1OC`, the GI50 with HCT-116 is 13.9 µM (inactive); in the assay on TK-10, > 100 µM (inactive); in the assay with A549, 9.4 µM (inactive); in the assay with HOP-92, 48.5 µM (inactive); in the assay with HL-60, 13.7 µM (inactive); with Malme-3M, 34.3 µM (inactive). Also, the GI50 with K562 was 4.39 µM (inactive); with LOX IMVI, 8.15 µM (inactive); with OVCAR-8, 19.8 µM (inactive); in the assay on NCI-H522, 34.7 µM (inactive); in the assay with SK-MEL-28, > 100 µM (inactive); in the assay on IGROV-1 it was > 100 µM (inactive). Besides, the GI50 was 52.2 µM (inactive) in the assay with NCI-H460; 41.4 µM (inactive) in the assay with ACHN; 30.9 µM (inactive) with UO-31; 12.1 µM (inactive) in the assay with UACC-257; 39.3 µM (inactive) with CCRF-CEM; 18.7 µM (inactive) in the assay on OVCAR-3. Further, the GI50 with SF-268 was > 100 µM (inactive).

On to `CC(=C/c1ccccc1)/C=C1/NC(=S)N(/C=C2\C(=O)Oc3ccccc3C2=O)C1=O`, for which the GI50 with HCT-116 is 41.9 µM (inactive); in the assay on TK-10 it was 40.7 µM (inactive); in the assay with A549 it was 42.2 µM (inactive); in the assay with HOP-92, 7.78 µM (inactive); in the assay with HL-60, 25.8 µM (inactive); in the assay with K562, 39.6 µM (inactive). Further, the GI50 is 53.5 µM (inactive) with LOX IMVI; 52.4 µM (inactive) in the assay with OVCAR-8; 22.7 µM (inactive) with NCI-H522; 52.1 µM (inactive) in the assay with SK-MEL-28; 30.5 µM (inactive) in the assay on NCI-H460; 58.1 µM (inactive) with HCC 2998. For the same compound, the GI50 in the assay on ACHN was 46 µM (inactive); in the assay with UACC-257, 66.7 µM (inactive); in the assay on CCRF-CEM it was 33.8 µM (inactive); in the assay on OVCAR-3, 38.3 µM (inactive); in the assay on SF-268 it was 53.6 µM (inactive).

Consider `Cc1ccccc1-c1nc2c(C(=O)NCCN(C)C)cccc2[nH]1`, for which the GI50 in the assay on HCT-116 is 29.6 µM (inactive); in the assay with A549 it was 39.4 µM (inactive); in the assay with HOP-92, 20.6 µM (inactive); in the assay with HL-60 it was 26.5 µM (inactive); with Malme-3M, 30.5 µM (inactive); in the assay on K562 it was 20.9 µM (inactive). The GI50 was 38.3 µM (inactive) in the assay on LOX IMVI; 42.8 µM (inactive) in the assay with OVCAR-8; 59.3 µM (inactive) in the assay on NCI-H522; > 93.3 µM (inactive) in the assay with SK-MEL-28; 58.5 µM (inactive) with IGROV-1; 30.2 µM (inactive) with NCI-H460. Further, the GI50 with HCC 2998 is 40.3 µM (inactive); in the assay with UO-31 it was 20 µM (inactive); in the assay on UACC-257 it was 39.8 µM (inactive); with CCRF-CEM, 27 µM (inactive); with OVCAR-3 it was 65.6 µM (inactive); with SF-268, 50.7 µM (inactive).

As to `O=C1c2ccccc2N1C(=O)c1ccccc1[N+](=O)[O-]`, the GI50 in the assay with HCT-116 is 36.1 µM (inactive); in the assay with TK-10, > 100 µM (inactive); in the assay on A549 it was 45.2 µM (inactive); with HOP-92, > 100 µM (inactive); in the assay with HL-60, > 10 µM (inactive); in the assay with Malme-3M, 29.6 µM (inactive). Further, the GI50 in the assay on K562 was > 100 µM (inactive); in the assay on LOX IMVI it was 32.1 µM (inactive); in the assay with OVCAR-8, 25.1 µM (inactive); in the assay on NCI-H522, 91.2 µM (inactive); in the assay on SK-MEL-28, > 100 µM (inactive); with IGROV-1, > 100 µM (inactive). Besides, the GI50 in the assay on NCI-H460 was > 100 µM (inactive); in the assay with HCC 2998, > 100 µM (inactive); with ACHN, 78.9 µM (inactive); in the assay on UO-31 it was > 100 µM (inactive); with UACC-257, > 100 µM (inactive); in the assay on CCRF-CEM, 48.9 µM (inactive). For the same compound, the figures for the GI50 in the assay with OVCAR-3 and in the assay on SF-268 were 18.6 µM (inactive) and 39.9 µM (inactive), respectively.

Regarding `NC(=O)Oc1ccccc1` [CARBAMIC ACID PHENYL ESTER], the GI50 in the assay on HCT-116, in the assay with TK-10, with A549, in the assay with HOP-92, with HL-60 and in the assay with K562 was > 100 µM (inactive) throughout. For the same compound, the GI50 in the assay on LOX IMVI, in the assay with OVCAR-8, in the assay with NCI-H522, with SK-MEL-28, in the assay on NCI-H460 and with HCC 2998 was > 100 µM (inactive) each time. In addition, the GI50 with ACHN, in the assay with UO-31, with UACC-257, in the assay with CCRF-CEM, in the assay with OVCAR-3 and with SF-268 was > 100 µM (inactive) throughout.

As to `COc1cc2c(cc1Oc1ccc(OC)c3c1CC1c4c(cc(OC)c(OC)c4-3)CCN1C)CC1c3c(cc(OC)c(OC)c3-2)CCN1C` (configuration not stated), the GI50 in the assay on HCT-116 is 1.77 µM (inactive); with A549, 11.9 µM (inactive); in the assay on HOP-92 it was 2.34 µM (inactive); with HL-60 it was 0.968 µM (active); in the assay with Malme-3M, 1.85 µM (inactive); with K562, 1.39 µM (inactive). Besides, the GI50 with LOX IMVI was 0.234 µM (active); with OVCAR-8 it was 5.3 µM (inactive); in the assay on NCI-H522, 2.09 µM (inactive); in the assay with SK-MEL-28 it was 1.82 µM (inactive); with IGROV-1, 3.86 µM (inactive); with NCI-H460, 1.7 µM (inactive). In addition, the GI50 in the assay on HCC 2998 is 2.41 µM (inactive); in the assay with UO-31, 3.88 µM (inactive); in the assay with UACC-257, 1.65 µM (inactive); in the assay on CCRF-CEM, 2.45 µM (inactive); in the assay with OVCAR-3, 4.95 µM (inactive); with SF-268, 2.33 µM (inactive).
